Assay results reported in patent US6418341B1, “Needle electrode assembly for electroporation mediated delivery of genes and drugs” (Genetronics, Inc., priority 1993, dated 2002).
Entries after “also recorded” stand apart in the source; their conditions may differ. Marks after values point to notes of the source that are not given here.

Legend:
cancerous tumors = details: low dose injected, tumors then electroporated with square wave pulses; cited from earlier work
[1] = test system: poorly differentiated human pancreatic tumor (Panc-3); experiment: Electrochemotherapy (ECT) of Panc-3 tumors xenografted subcutaneously in nude mice; assay type: in vivo; details: for Overall outcome of the electrochemotherapy protocol: needle array electrodes
Description: The following examples illustrate the use of electrochemotherapy (ECT) of a poorly differentiated human pancreatic tumor (Panc-3) xenografted subcutaneously on the left flank of nude mice. The single treatment procedure involved injection of bleomycin (0.5 units in 0.15 ml saline) intratumorally, using fanning, as described herein followed by application of six square wave electrical pulses, ten minutes later, using proprietary needle array electrodes arranged along the circumference of a circle 1 cm in diameter. Needle array of variable diameters (e.g., 0.5 cm, 0.75 cm and 1.5 cm can also be used to accommodate tumors of various sizes. Stoppers of various heights can be inserted at the center of the array to make the penetration depth of the needles into the tumor variable. A built-in mechanism allowed switching of electrodes for maximum coverage of the tumor by the pulsed field. The electrical parameters were: 1300 V/cm and 6×99 μs pulses spaced at 1 sec interval.
The tumor cell line Panc-3, a poorly differentiated adenocarcinoma cell line of the pancreas, was supplied by AntiCancer, Inc., San Diego. For ECT experiments, tissue taken from the stock mice, where the tumor fine was maintained, was thawed and cut into very small pieces about 1 mm each, and 8-10 pieces were surgically xenografted in a subcutaneous sac made in left flank of nude mice, and then closed with 6.0 surgical suture. After the average tumor size reached about 5 mm, mice with palpable tumors were divided randomly, 10 mice for control group (D+E−; D=Drug, E=Electric field) and 10 mice for ECT treatment namely bleomycin injection followed by pulsing (D+E+) from a BTX Square Wave T820 Generator. The tumor dimensions were measured and the tumor volume calculated using the formula: […]
where a, b, and c are, respectively, the length, width and thickness of the tumor. 0.5 units Bleomycin (Sigma Chemicals) was dissolved in 0.15 ml of 0.9% NaCl and was injected in each mice intratumorally by fanning for both the control (D+E−) and the treated (D+E+) groups. Ten minutes after the injection, each mouse in the D+E+ group was pulsed from a BTX T820 square wave electroporator with a set of needle array electrodes as described in the present invention. Electrical parameters used were as follows: field strength 1300 V/cm, 6 pulses of 99 μs each, at 1 sec interval.
(§1) The mice were monitored every day for mortality and any signs of a diseased state were noted. The tumor dimensions were measured at regular intervals and tumor growth regression/progression monitored. Another set of nude mice with xenografts of non-small cell lung cancer line was also treated by the same procedure as for the Panc-3 tumors.
(§2) The Panc-3 and NSCLC models were utilized with the drug neocarcinostatin (NCS) following the same procedures as outlined above. […] It was believed that due to the low isoelectric point of NCS, electrostatic interaction prevented the drug from entering the tumor cell. Therefore, the experiment was repeated by pulsing first and injecting NCS post-pulse.

[2] = test system: non-small cell lung cancer cell line (NSCLC), 177; experiment: Electrochemotherapy (ECT) of non-small cell lung cancer xenografts in nude mice; assay type: in vivo; details: for Overall outcome of the electrochemotherapy protocol: needle array electrodes
Description: as §1, §2

[3] = P = partition coefficient between octanol and water; cited from earlier work
[4] = ECT, 10 mice treated, 28 days after treatment
[5] = ECT, 10 mice treated, 35 days after treatment
[6] = ECT, 10 mice treated, 57 days after treatment
[7] = ECT, 10 mice treated, 77 days after treatment

For bleomycin, the Tumor response (cancerous tumors) is listed as “reduction or complete remission of the tumors”, the “Histological analysis of tumor samples” value ([1]; D+E+ group (ECT)) is listed as “severe necrosis of the tumor region; also recorded: necrotic tumor cell ghosts” and the “Cases with partial regression (80% reduction in tumor volume)” value ([1]; ECT (D+E+)) is listed as 30%. For the same substance, the “Necrosis and edema at the treatment site” value ([1]; ECT (D+E+)) was “severe necrosis and edema in nearly all the mice”, the “Mice with tumor regrowth” value ([1]; ECT (D+E+), 35 days after treatment, much slower growth rate than control) was 20% and the “Cases with complete regression with no palpable tumor” value ([1]; ECT (D+E+), 77 days after the single treatment) was 60%. For the same substance, the “Time after which essentially no detectable tumor” value ([1]; ECT (D+E+), FIG. 10) was “approximately 24 days”, the “CR (100%), Complete Regression, number of mice” value (“CR (100%), Complete Regression” below) [1, 4] was 6 and the “NR (%), No Response, number of mice” value [1, 4] was 1. The “PR (80%), Partial Regression, number of mice” value [1, 4] was 3, the “CR (100%), Complete Regression” value [1, 5] was 6 and the “NR (%), No Response, number of mice” value [1, 5] was 1. The “Tumor regrowth, number of mice” value [1, 5] was 2, the “CR (100%), Complete Regression” value [1, 6] was 6 and the “NR (%), No Response, number of mice” value [1, 6] was 1. The “CR (100%), Complete Regression” value [1, 7] was 6, the “NR (%), No Response, number of mice” value [1, 7] was 1 and the “Death, number of mice” value ([1]; ECT, 10 mice treated, 77 days after treatment, 1 died after retreatment, 1 after 64 days survival) was 2*. The “Effect of intratumoral injection with larger volume combined with fanning” value ([1]; compared to the conventional mode of injecting the drug prior to pulsing) was “very effective”, the “Change of tumor volume” value ([1]; control group D+E- (drug, no electrical field)) was “increased dramatically” and the “Tumor volume (mm^3) C1” value ([1]; control mouse C1 (D+E-), 1 day after treatment) was 206.979 mm^3. For the same substance, the “Tumor volume (mm^3) C1” value ([1]; control mouse C1 (D+E-), 8 days after treatment) was 394.786 mm^3, the “Tumor volume (mm^3) C1” value ([1]; control mouse C1 (D+E-), 15 days after treatment) was 557.349 mm^3 and the “Tumor volume (mm^3) C1” value ([1]; control mouse C1 (D+E-), 18 days after treatment) was 939.582 mm^3. The “Tumor volume (mm^3) C1” value ([1]; control mouse C1 (D+E-), 24 days after treatment) was 1391.057 mm^3, the “Tumor volume (mm^3) C1” value ([1]; control mouse C1 (D+E-), 28 days after treatment) was 1628.631 mm^3 and the “Tumor volume (mm^3) C1” value ([1]; control mouse C1 (D+E-), 35 days after treatment) was 2619.765 mm^3. For the same substance, the “Tumor volume (mm^3) C1” value ([1]; control mouse C1 (D+E-), 38 days after treatment) was 2908.912 mm^3, the “Tumor volume (mm^3) C1” value ([1]; control mouse C1 (D+E-), 43 days after treatment) was 3708.571 mm^3 and the “Tumor volume (mm^3) C1” value ([1]; control mouse C1 (D+E-, bleomycin 0.5 units intratumoral, no pulsing), 0 days after treatment) was 138.746 mm^3. For the same substance, the “Tumor volume (mm^3) C2” value ([1]; control mouse C2 (D+E-), 1 day after treatment) was 179.82 mm^3, the “Tumor volume (mm^3) C2” value ([1]; control mouse C2 (D+E-), 8 days after treatment) was 451.787 mm^3 and the “Tumor volume (mm^3) C2” value ([1]; control mouse C2 (D+E-), 15 days after treatment) was 798.919 mm^3. For the same substance, the “Tumor volume (mm^3) C2” value ([1]; control mouse C2 (D+E-), 18 days after treatment) was 881.752 mm^3, the “Tumor volume (mm^3) C2” value ([1]; control mouse C2 (D+E-), 24 days after treatment) was 1406.98 mm^3 and the “Tumor volume (mm^3) C2” value ([1]; control mouse C2 (D+E-), 28 days after treatment) was 1474.21 mm^3. For the same substance, the “Tumor volume (mm^3) C2” value ([1]; control mouse C2 (D+E-), 35 days after treatment) was 2330.31 mm^3, the “Tumor volume (mm^3) C2” value ([1]; control mouse C2 (D+E-), 38 days after treatment) was 2333.967 mm^3 and the “Tumor volume (mm^3) C2” value ([1]; control mouse C2 (D+E-), 43 days after treatment) was 5381.759 mm^3. For the same substance, the “Tumor volume (mm^3) C2” value ([1]; control mouse C2 (D+E-, bleomycin 0.5 units intratumoral, no pulsing), 0 days after treatment) was 148.94 mm^3, the “Overall outcome of the electrochemotherapy protocol” value (“Overall outcome” for short) [1] was “effectively treated” and the “Mice with no response” value ([1]; treated by ECT (D+E+)) was 10%. The “Mice with nearly complete tumor regression” value ([1]; treated by ECT (D+E+), after 28 days) was 90%, the “Change of tumor volume” value ([1]; treated group D+E+, after a slight initial increase due to edema) was “substantial reduction in the tumor volume” and the “Tumor volume (mm^3) T1” value ([1]; treated mouse T1 (D+E+), 1 day after treatment) was 210.95 mm^3. For the same substance, the “Tumor volume (mm^3) T1” value ([1]; treated mouse T1 (D+E+), 8 days after treatment) was 104.55 mm^3, the “Tumor volume (mm^3) T1” value ([1]; treated mouse T1 (D+E+), 15 days after treatment) was 113.21 mm^3 and the “Tumor volume (mm^3) T1” value ([1]; treated mouse T1 (D+E+), 18 days after treatment) was 161.73 mm^3. For the same substance, the “Tumor volume (mm^3) T1” value ([1]; treated mouse T1 (D+E+), 24 days after treatment) was 41.56 mm^3, the “Tumor volume (mm^3) T1” value ([1]; treated mouse T1 (D+E+), 28 days after treatment) was 0 mm^3 and the “Tumor volume (mm^3) T1” value ([1]; treated mouse T1 (D+E+), 35 days after treatment) was 0 mm^3. For the same substance, the “Tumor volume (mm^3) T1” value ([1]; treated mouse T1 (D+E+), 38 days after treatment) was 0 mm^3, the “Tumor volume (mm^3) T1” value ([1]; treated mouse T1 (D+E+), 43 days after treatment) was 0 mm^3 and the “Tumor volume (mm^3) T1” value ([1]; treated mouse T1 (D+E+, bleomycin 0.5 units intratumoral + 1300 V/cm 6x99 μs pulses), 0 days after treatment) was 123.11 mm^3. The “Tumor volume (mm^3) T2” value ([1]; treated mouse T2 (D+E+), 1 day after treatment) was 252.72 mm^3, the “Tumor volume (mm^3) T2” value ([1]; treated mouse T2 (D+E+), 8 days after treatment) was 211.11 mm^3 and the “Tumor volume (mm^3) T2” value ([1]; treated mouse T2 (D+E+), 15 days after treatment) was 226.966 mm^3. For the same substance, the “Tumor volume (mm^3) T2” value ([1]; treated mouse T2 (D+E+), 18 days after treatment) was 246.91 mm^3, the “Tumor volume (mm^3) T2” value ([1]; treated mouse T2 (D+E+), 24 days after treatment) was 47.2228 mm^3 and the “Tumor volume (mm^3) T2” value ([1]; treated mouse T2 (D+E+), 28 days after treatment) was 0 mm^3. For the same substance, the “Tumor volume (mm^3) T2” value ([1]; treated mouse T2 (D+E+), 35 days after treatment) was 0 mm^3, the “Tumor volume (mm^3) T2” value ([1]; treated mouse T2 (D+E+), 38 days after treatment) was 0 mm^3 and the “Tumor volume (mm^3) T2” value ([1]; treated mouse T2 (D+E+), 43 days after treatment) was 0 mm^3. For the same substance, the “Tumor volume (mm^3) T2” value ([1]; treated mouse T2 (D+E+, bleomycin 0.5 units intratumoral + 1300 V/cm 6x99 μs pulses), 0 days after treatment) was 178.37 mm^3, the “Result of ECT treatment on tumor volume” value ([2]; ECT as for Panc-3, FIGS. 12a, 12b) was “very encouraging results” and the “Overall outcome” value [2] was “effectively treated”. For the same substance, the “Tumor after retreatment of a recurred tumor” value ([2]; one mouse retreated at day 27, 7 days after retreatment (FIG. 13)) was “no evidence of tumor” and the “log P” value [3] was “very negative”.
For neocarcinostatin [NCS], the “Post-pulse compared with pre-pulse administration” value ([1]; FIGS. 14a and b versus 14c and d) was “more effective than pre-pulse administration”, the “Overall outcome” value [1] was “effectively treated” and the “Final versus initial tumor volume” value ([1]; post-pulse dosing, day 13, 7 mice, mouse ID 1, 2, 4 and 7, appeared to be due to edema (FIG. 14c)) was “an increase in tumor volume was observed”. For the same substance, the “Change of tumor volume” value ([1]; post-pulse dosing, day 23, separate group of 5 mice (FIG. 14d)) was “all mice showed a marked reduction in tumor volume”, the “Reduction of tumor size” value ([1]; pre-pulse dosing (FIG. 14a)) was “not effective in reducing tumor size at all” and the “Overall outcome” value [2] was “effectively treated”. The “Reduction of tumor size” value ([2]; pre-pulse dosing (FIG. 14b)) was “not effective in reducing tumor size at all”.
